According to patent EP4678639A1, “SALT OF BENZIMIDAZOLE DERIVATIVE” (JW Pharmaceutical Corporation, priority 2023, dated 2024):
Entries after “also recorded” stand apart in the source; their conditions may differ. Structures can show the parent of a compound that is named as a salt.

Key:
[1] = Liquid stability comparative test (20 mg/mL in purified water, 40 °C, 24 hours, HPLC); type: physicochemical; conditions: for After 24 hours Purity (%) / Initial Purity (%) / After 24 hours Degradant (%) / Initial Degradant (%): 20 mg/mL in purified water; for Initial Purity (%) / Initial Degradant (%): initial time point; for After 24 hours Degradant (%) / Initial Degradant (%): degradant of Formula 4; for solid precipitation / solution state: stored at 40 °C for 24 hours
Description: The analysis conditions are as follows.
Each sample was dissolved in purified water to prepare a solution with a concentration of 20 mg/mL, stored at an external temperature of 40 °C, and analyzed by HPLC at the initial time point and after 24 hours to measure purity, and the change in the generated degradant (Formula 4) was measured. The analysis of total related substances and degradants was performed by taking a liquid from a solution prepared at a concentration of 20 mg/mL, diluting it to a concentration of 4 mg/mL with the diluent of the related substance test method (HPLC), and measuring it as a test solution, and analyzing it according to the related substance test method (HPLC).

[2] = Raw material stability test versus tegoprazan freebase (60 °C or 90 % RH); type: physicochemical
[3] = Stability test by formulation (tablets and orally disintegrating tablets, 60 °C or 90 % RH); type: physicochemical; conditions: tablets and orally disintegrating tablets prepared with the named salt, versus reference drug
Description: The amount of total related substances under stress storage conditions (temperature/humidity) was measured using liquid chromatography (HPLC) using an Infinity 1260 (Agilent) equipment. The analysis conditions are as follows.
To minimize the influence of additives, each test formulation was selected with the same additives as the reference drug (K-CAB tablets 50 mg, K-CAB orally disintegrating tablets 50 mg) disclosed in the Ministry of Food and Drug Safety Pharmaceutical Integrated Information System, and to minimize differences due to the granule manufacturing process, the formulation was prepared using the simple mixing (direct compression) method. Each formulation was as shown in Tables 16 and 17 below, and the stability conditions were conducted for each formulation under the storage conditions of 60 °C, which is a stress temperature condition, and 90 % RH, which is a stress humidity condition, respectively.
Stability tests were conducted under stress storage conditions (temperature/humidity) for each formulation. The results of measuring the amount of total related substances after storage under stress conditions for 1 week or 3 weeks are shown in FIG. 18 and FIG. 19.

[4] = Solid-state stress stability test (humidity 90 % RH); conditions: for absorb moisture and deliquesce / melted / Remarks: 90 % RH; for Remarks: 1 month, state of the solid; for Initial (%) Degradant / Initial (%) Total Related substances: Table 9, initial; for Change in Quality (%) 90 % RH (4 weeks) Degradant / Change in Quality (%) 90 % RH (4 weeks) Purity: Table 12 summary
Description: (§1) Operation and Calculation: The blank solution, standard solution, and test solution were sequentially tested under the instrument operating conditions according to the liquid chromatography method in the General Test Methods of the 12th Edition of the Korean Pharmacopoeia, and the amount of related substances was calculated using the following equation. Amount of each related; substance (%) = (AT)/(AS) × (CS)/(CT) × (Molecular weight; of the sample)/(Molecular weight; of the standard; product) × P × (1)/(RR; F) [formula] AT = Area of each related substance peak obtained from the test solution AS = Area of the tegoprazan peak obtained from the standard solution CS = Concentration of standard solution (mg/mL) CT = Concentration of test solution (mg/mL) P = Purity/Assay/Potency (%) of standard product RRF = Relative response factor (1.0)
(§2) A solid-state stability comparative test was conducted on each of the above-mentioned prepared tegoprazan acid addition salts. The stability comparative test was conducted for 1 month under the conditions shown in Table 6 below in accordance with The International Council for Harmonisation of Technical Requirements for Pharmaceuticals for Human Use (ICH) guideline, and the purity of the acid addition salt, total related substances, and the content of degradants were measured by HPLC at the initial time point and after 1 month. Total related substances and degradants were measured according to the related substance test method (HPLC).
3) Stress Stability (humidity 90 % RH)

[5] = Solid-state stress stability test (temperature 60 °C); conditions: for Change (%) Degradant: 1 month vs initial; for Initial (%) Degradant / Initial (%) Total Related substances: Table 8, initial
Description: as §1, §2
2) Stress Stability Test (temperature 60 °C)

[6] = Photostability test, visible light (1.2 Mlux·hr) exposure; conditions: for Change (%) Degradant: Table 11, after exposure vs initial; for Initial (%) Degradant / Initial (%) Total Related substances: Table 11, initial; for After (%) Degradant / After (%) Total Related substances: Table 11 under heading Visible Light (1.2 Mlux-hr) Exposure Test; for Change in Quality (%) Light (Visible) Degradant: Table 12 summary
Description: (§3) A photostability comparative test was conducted on each of the above-mentioned prepared tegoprazan acid addition salts. The test was conducted by exposing the sample to light with an energy of 200 W hr/m^2 of ultraviolet light and 1.2 Mlux hr of visible light in accordance with The International Council for Harmonisation of Technical Requirements for Pharmaceuticals for Human Use (ICH) guideline, with the samples packaged in a single PE bag and spread thinly enough to ensure exposure to the light source, taking humidity stability into consideration. The purity of the acid addition salts and the change in the amount of degradants at the initial time point and after exposure to ultraviolet light or visible light were measured by HPLC.

[7] = Photostability test, ultraviolet light (200 W·hr/m2) exposure; conditions: for After Ultraviolet Light Exposure (200 W hr/m2)(%) Degradant / After Ultraviolet Light Exposure (200 W hr/m2)(%) Total Related substances: Table 10, UV 200 W·hr/m2, PE bag; for Change (%) Degradant: Table 10, after UV exposure vs initial; for Initial (%) Degradant / Initial (%) Total Related substances: Table 10, initial; for Change in Quality (%) Light (Ultraviolet) Degradant / Change in Quality (%) Light (Ultraviolet) Purity: Table 12 summary
Description: as §3

[8] = Solid-state accelerated stability test (40 ± 2 °C/RH 75 ± 5 %); conditions: for Change (%) Degradant: 1 month vs initial; for Initial (%) Degradant: degradant of Formula 4; for Change in Quality (%) Accelerated (4 weeks) Degradant / Change in Quality (%) Accelerated (4 weeks) Purity: Table 12 summary
Description: as §1, §2

[9] = 40 ± 2 °C / RH 75 ± 5 %, 1 month

## Cc1nc2c(O[C@H]3CCOc4cc(F)cc(F)c43)cc(C(=O)N(C)C)cc2[nH]1 [Methanesulfonate Salt (Crystalline Form)]
[1]; 40 °C, 24 hours
  After 24 hours Purity (%): 99.47%
  After 24 hours Degradant (%): 0.446%
[1]
  Initial Purity (%): 99.95%
  Initial Degradant (%): 0.028%
[1]; initial vs after 24 hours at 40 °C
  Amount of Change Degradant (%): 0.42%
[1]; liquid stability, 40 °C, 24 hours
  increase in degradants (degradant of Formula 4): ≤ 0.5%
[2]; 60 °C, 3 weeks
  change in appearance, 60 °C: No change in appearance
[2]; 90 % RH, 3 weeks
  change in appearance, 90 % RH: Dissolved to transparency
[2]; initial
  change in appearance, Initial: No change in appearance
[2]; stress temperature/humidity storage, compared to tegoprazan freebase
  amount of total related substances generated (FIG. 13): significantly increased
[3]; 60 °C or 90 % RH, 1 or 3 weeks
  amount of total related substances generated (FIGS. 18 and 19): significantly increased
[3]; 90 % RH, 3 weeks
  degree of weight gain (FIG. 17): greater
[4]
  absorb moisture and deliquesce / melted: absorb moisture and deliquesce
  Remarks: Melted
  Initial (%) Degradant: 0.122%
  Initial (%) Total Related substances: 0.265%
  Change in Quality (%) 90 % RH (4 weeks) Degradant: Melted
  Change in Quality (%) 90 % RH (4 weeks) Purity: Melted
[5]; 60 °C
  total related substances increased after 1 month: ≥ 5.0%
  Change (%) Degradant: 4.045%
[5]; 60 °C, 1 month
  After 1 Month (%) Degradant: 4.167%
  After 1 Month (%) Total Related substances: 5.408%
  change in appearance, change in the color of the solid: change in appearance
[5]; 60 °C, 1 month, appearance
  Remarks: Discolorat ion
[5]
  Initial (%) Degradant: 0.122%
  Initial (%) Total Related substances: 0.265%
[5]; Table 12 summary
  Change in Quality (%) 60 °C (4 weeks) Degradant: 4.045%
  Change in Quality (%) 60 °C (4 weeks) Purity: -5.143%
[5]; Table 12 summary, remark in brackets under the 60 °C columns
  60 °C (4 weeks) appearance remark: (Discoloration)
[6]
  Change (%) Degradant: 0.086%
  Initial (%) Degradant: 0.122%
  Initial (%) Total Related substances: 0.265%
  After (%) Degradant: 0.208%
  After (%) Total Related substances: 0.412%
  Change in Quality (%) Light (Visible) Degradant: 0.086%
[7]
  After Ultraviolet Light Exposure (200 W hr/m2)(%) Degradant: 0.168%
  After Ultraviolet Light Exposure (200 W hr/m2)(%) Total Related substances: 0.339%
  Change (%) Degradant: 0.046%
  Initial (%) Degradant: 0.122%
  Initial (%) Total Related substances: 0.265%
  Change in Quality (%) Light (Ultraviolet) Degradant: 0.046%
  Change in Quality (%) Light (Ultraviolet) Purity: 0.074%
[8]; [9]
  After 1 Month (%) Degradant: 0.518%
  After 1 Month (%) Total Related substances: 0.727%
[8]; 40 ± 2 °C / RH 75 ± 5 %
  Change (%) Degradant: 0.396%
[8]; Table 7, initial
  Initial (%) Total Related substances: 0.265%
  Initial (%) Degradant: 0.122%
[8]
  Change in Quality (%) Accelerated (4 weeks) Degradant: 0.396%
  Change in Quality (%) Accelerated (4 weeks) Purity: -0.462%
[8]; accelerated stability
  increase in total related substances after 1 month: ≥ 0.3%

## Cc1nc2c(O[C@H]3CCOc4cc(F)cc(F)c43)cc(C(=O)N(C)C)cc2[nH]1 [Phosphate Salt]
[1]; 40 °C, 24 hours
  After 24 hours Purity (%): Solid precipitated
  After 24 hours Degradant (%): Solid precipitated
[1]
  Initial Purity (%): 99.97%
  Initial Degradant (%): 0.010%
  solid precipitation / solution state: solid precipitation
[4]
  absorb moisture and deliquesce / melted: absorb moisture and deliquesce
  Remarks: Melted
  Initial (%) Degradant: 0.085%
  Initial (%) Total Related substances: 0.254%
[5]; 60 °C, 1 month
  After 1 Month (%) Degradant: 1.668%
  After 1 Month (%) Total Related substances: 2.423%
[5]; 60 °C
  Change (%) Degradant: 1.583%
[5]
  Initial (%) Degradant: 0.085%
  Initial (%) Total Related substances: 0.254%
[6]
  Change (%) Degradant: 0.055%
  Initial (%) Degradant: 0.085%
  Initial (%) Total Related substances: 0.254%
  After (%) Degradant: 0.140%
  After (%) Total Related substances: 0.449%
[7]
  After Ultraviolet Light Exposure (200 W hr/m2)(%) Degradant: 0.096%
  After Ultraviolet Light Exposure (200 W hr/m2)(%) Total Related substances: 0.277%
  Change (%) Degradant: 0.011%
  Initial (%) Degradant: 0.085%
  Initial (%) Total Related substances: 0.254%
[8]; [9]
  After 1 Month (%) Degradant: 0.205%
  After 1 Month (%) Purity: 99.6%
  After 1 Month (%) Total Related substances: 0.327%
[8]; 40 ± 2 °C / RH 75 ± 5 %
  Change (%) Degradant: 0.120%
[8]; Table 7, initial
  Initial (%) Purity: 99.7%
  Initial (%) Total Related substances: 0.254%
  Initial (%) Degradant: 0.085%

## Cc1nc2c(O[C@H]3CCOc4cc(F)cc(F)c43)cc(C(=O)N(C)C)cc2[nH]1 [Pidolate Salt]
[1]; 40 °C, 24 hours
  After 24 hours Purity (%): Solid precipitated
  After 24 hours Degradant (%): Solid precipitated
[1]
  Initial Purity (%): 99.98%
[1]; listed as pidolate
  solid precipitation / solution state: a solid precipitated
[1]; listed as pidolate salt
  solid precipitation / solution state: solid precipitation; also recorded: solids were precipitated
[4]
  Remarks: Melted
  Initial (%) Degradant: 0.001%
  Initial (%) Total Related substances: 0.145%
  Change in Quality (%) 90 % RH (4 weeks) Degradant: Melted
  Change in Quality (%) 90 % RH (4 weeks) Purity: Melted
[4]; listed as pidolate
  absorb moisture and deliquesce / melted: deliquesced
[4]; listed as pidolate salt
  absorb moisture and deliquesce / melted: absorb moisture and deliquesce; also recorded: melted
[5]; 60 °C, 1 month
  After 1 Month (%) Degradant: 0.088%
  After 1 Month (%) Total Related substances: 0.353%
[5]; 60 °C
  Change (%) Degradant: 0.087%
[5]
  Initial (%) Degradant: 0.001%
  Initial (%) Total Related substances: 0.145%
[5]; Table 12 summary
  Change in Quality (%) 60 °C (4 weeks) Degradant: 0.087%
  Change in Quality (%) 60 °C (4 weeks) Purity: -0.208%
[6]
  Change (%) Degradant: 0.067%
  Initial (%) Degradant: 0.001%
  Initial (%) Total Related substances: 0.145%
  After (%) Degradant: 0.068%
  After (%) Total Related substances: 0.463%
  Change in Quality (%) Light (Visible) Degradant: 0.067%
[7]
  After Ultraviolet Light Exposure (200 W hr/m2)(%) Degradant: 0.020%
  After Ultraviolet Light Exposure (200 W hr/m2)(%) Total Related substances: 0.266%
  Change (%) Degradant: 0.019%
  Initial (%) Degradant: 0.001%
  Initial (%) Total Related substances: 0.145%
  Change in Quality (%) Light (Ultraviolet) Degradant: 0.019%
  Change in Quality (%) Light (Ultraviolet) Purity: 0.121%
[8]; [9]
  After 1 Month (%) Degradant: 0.003%
  After 1 Month (%) Total Related substances: 0.146%
[8]; 40 ± 2 °C / RH 75 ± 5 %
  Change (%) Degradant: 0.002%
[8]; Table 7, initial
  Initial (%) Total Related substances: 0.145%
  Initial (%) Degradant: 0.001%
[8]
  Change in Quality (%) Accelerated (4 weeks) Degradant: 0.002%
  Change in Quality (%) Accelerated (4 weeks) Purity: -0.001%
[8]; accelerated stability
  purity change after 1 month: ≤ 0.1%
